According to patent US4737513A, “Novel pyrrole derivatives” (Roussel Uclaf, priority 1984, dated 1988):

Key:
Assay type in all cases: in vivo
[1] = system: Tetranychus urticae; test: Activity on Tetranychus urticae, test of lethal effect on adults; conditions: females on treated bean leaves; checked after 80 hours of contact
Protocol: (4) Activity on Tetranychus urticae, test of lethal effect on adults
Bean plants having two cotyledon leaves were used which were treated with a Fisher gun with an acetone solution of the product. After drying, 25 females of the acaridan Tetranychus urticae were placed on each leaf, that is 50 individuals per experimental dose per plant. The efficacity was checked after 80 hours of contact, and the LD 50 was indicated in mg/hl.

[2] = system: house flies; test: Study of knock-down activity of house flies (direct atomization in a Kearns and March chamber); conditions: concentration at 0.1 g/l; female house flies 4 days old; acetone (5%) and Isopar L
Protocol: (1) Study of knock-down activity of house flies
The test insects were female house flies 4 days old and the test was effected by direct atomization in a Kearns and March chamber using as solvent a mixture of acetone (5%) and Isopar L (petrol solvent) (quantity of solvent used, 2 ml in one second). 50 insects were used per treatment and checks were made every minute for 10 minutes, then at 15 minutes, and the KT50 was determined by the usual methods.

[3] = system: Aphis cracivora; test: Study of lethal effect on Aphis cracivora (contact-ingestion method); set-up: unit not given here; conditions: adults 7 days old; 1 hour contact with treated bean leaf; mortality checked after 24 hours
Protocol: (3) Study of lethal effect on Aphis cracivora
Adults 7 days old were used with 10 aphis per concentration using a contact-ingestion method. The treatment was carried out with a Fisher gun on a bean leaf which was placed in a plastic Petri dish on a disc of moistened paper. 2 ml of an acetone solution of the product under test were used with 1 ml per face of the leaf and the insect infestation was carried out after drying the leaf. The insects were kept in contact with the leaf for 1 hour and then they were placed on untreated leaves.

[4] = system: cockroaches (Blatella germanica); test: Study of activity by tarsal contact on cockroaches; conditions: male Blatella germanica; 1 hour on dried acetone deposit; mortality checked at 24 hours, 48 hours, 3 days and 5 days
Protocol: (2) Study of activity by tarsal contact on cockroaches
The insects tested were male cockroaches (Blatella germanica) and the test was carried out by depositing an acetone solution of a certain concentration on the bottom of a Petri dish 20 cm in diameter. After this had dried, 20 male cockroaches were allowed to stay there per concentration for 1 hour, after which they were transferred to a healthy medium and their mortality was checked at 24 hours, 48 hours, 3 days and 5 days. The result was expressed as lethal concentration 50 (LC 50) in mg/m^2.

Row | SMILES | LD 50 [1] | KT 50 [2] | LD 50 [3] | lethal concentration 50 (LC 50) [4]
1 | C#CCn1ccc(COC(=O)[C@@H]2[C@H](/C=C(\Cl)C(F)(F)F)C2(C)C)c1C#N [Example 43, [2-cyano-1-(2-propynyl)-1H-pyrrol-3-yl]-methyl (1R,cisΔZ) 2,2-dimethyl-3-[(2-chloro-3,3,3-trifluoro)-1-propenyl]-cyclopropane carboxylate] | 342 mg/hl | 2.9 min | 7.5 | 2.8 mg/m^2
2 | C#CCn1ccc(COC(=O)[C@@H]2[C@@H](C=C(Cl)C(F)(F)F)C2(C)C)c1C#N [Example 49, [1-(2-propynyl)-2-cyano-1H-pyrrol-3-yl]-methyl 1R, trans (E,1/3) (Z,2/3) 2,2-dimethyl-3-(2-chloro-2-trifluoromethylethenyl)-cyclopropane carboxylate] | – | 11.0 min | 6.5 | –
